From patent US20250340574A1, “MODULATORS OF CYSTIC FIBROSIS TRANSMEMBRANE CONDUCTANCE REGULATOR” (Vertex Pharmaceuticals Incorporated, priority 2022, published 2025) come the findings set out here.

The target of this test is T1, CFTR (F508del/MF-HBE cells) (Homo sapiens, UniProt P13569, DEL508-508).
T1 construct: human bronchial epithelial (HBE) cells derived from CF subjects heterozygous for F508del and a minimal function CFTR mutation (F508del/MF-HBE); endogenous in cells; host or cells: Primary human bronchial epithelial cells from CF subjects (F508del/MF genotype), differentiated at an air-liquid interface
Nature of the test: Ussing chamber assay of CFTR-mediated short-circuit currents, Assay A (0.1 μM to 25 μM, 6 concentrations). As to conditions: with 33 nM potentiator and 18 μM Tezacaftor, 20% human serum; for Emax: 18-24 hours, read-out: A Max activity (%). The test is classed as cell-based. Here is the method:
Ussing chamber experiments were performed using human bronchial epithelial (HBE) cells derived from CF subjects heterozygous for F508del and a minimal function CFTR mutation (F508del/MF-HBE) and cultured as previously described (Neuberger T, Burton B, Clark H, Van Goor F Methods Mol Biol 2011:741:39-54). After four days the apical media was removed, and the cells were grown at an air liquid interface for >14 days prior to use.
To isolate the CFTR-mediated short-circuit (ISC) current, F508del/MF-HBE grown on Costar® Snapwell™ cell culture inserts were mounted in an Ussing chamber and the transepithelial ISC was measured under voltage-clamp recording conditions (Vhold=0 mV) at 37° C. The basolateral solution contained (in mM) 145 NaCl, 0.83 K2HPO4, 3.3 KH2PO4, 1.2 MgCl2, 1.2 CaCl2, 10 Glucose, 10 HEPES (pH adjusted to 7.4 with NaOH) and the apical solution contained (in mM) 145 NaGluconate, 1.2 MgCl2, 1.2 CaCl2, 10 glucose, 10 HEPES (pH adjusted to 7.4 with NaOH) and 30 μM amiloride to block the epithelial sodium channel. Forskolin (20 μM) was added to the apical surface to activate CFTR, followed by apical addition of a CFTR inhibitor cocktail consisting of BPO, GlyH-101, and CFTR inhibitor 172 (each at 20 μM final assay concentration) to specifically isolate CFTR currents. The CFTR-mediated ISC (μA/cm^2) for each condition was determined from the peak forskolin response to the steady-state current following inhibition.
The activity of the CFTR corrector compounds on the CFTR-mediated ISC was determined in Ussing chamber studies as described above. The F508del/MF-HBE cell cultures were either incubated with the corrector compounds at a range of concentrations in combination with 33 nM (6R,12R)-17-amino-12-methyl-6,15-bis(trifluoromethyl)-13,19-dioxa-3,4,18-triazatricyclo[12.3.1.12,5]nonadeca-1(18),2,4,14,16-pentaen-6-ol and 18 μM Tezacaftor or were incubated with the corrector compounds at a single fixed concentration of 1 μM in combination with 44 nM (6R,12R)-17-amino-12-methyl-6,15-bis(trifluoromethyl)-13,19-dioxa-3,4,18-triazatricyclo[12.3.1.12,5]nonadeca-1(18),2,4,14,16-pentaen-6-ol and 18 μM Tezacaftor for 18-24 hours at 37° C. and in the presence of 20% human serum. The concentration of corrector compounds with 44 nM or 33 nM (6R,12R)-17-amino-12-methyl-6,15-bis(trifluoromethyl)-13,19-dioxa-3,4,18-triazatricyclo[12.3.1.12,5]nonadeca-1(18),2,4,14,16-pentaen-6-ol and 18 μM Tezacaftor during the 18-24 hours incubations was kept constant throughout the Ussing chamber measurement of the CFTR-mediated ISC to ensure compounds were present throughout the entire experiment. The efficacy and potency of the putative F508del correctors was compared to that of the known Vertex corrector, (14S)-8-[3-(2-{Dispiro[2.0.2.1]heptan-7-yl}ethoxy)-1H-pyrazol-1-yl]-12,12-dimethyl-2λ^6-thia-3,9,11,18,23-pentaazatetracyclo[17.3.1.111,14.05,10]tetracosa-1(22),5,7,9,19(23),20-hexaene-2,2,4-trione, in combination with 18 μM Tezacaftor and 1 μM Ivacaftor.
• Assay A: 0.1 μM to 25 μM, 6 concentrations • Assay B: 0.00001 μM to 25 μM, 12 concentrations • Assay C: 0.026 μM to 25 μM, 6 concentrations • Assay D: Activity at single concentration of 1 μM

T1 sequence (P13569 with tags, fused parts or gaps DEL508-508): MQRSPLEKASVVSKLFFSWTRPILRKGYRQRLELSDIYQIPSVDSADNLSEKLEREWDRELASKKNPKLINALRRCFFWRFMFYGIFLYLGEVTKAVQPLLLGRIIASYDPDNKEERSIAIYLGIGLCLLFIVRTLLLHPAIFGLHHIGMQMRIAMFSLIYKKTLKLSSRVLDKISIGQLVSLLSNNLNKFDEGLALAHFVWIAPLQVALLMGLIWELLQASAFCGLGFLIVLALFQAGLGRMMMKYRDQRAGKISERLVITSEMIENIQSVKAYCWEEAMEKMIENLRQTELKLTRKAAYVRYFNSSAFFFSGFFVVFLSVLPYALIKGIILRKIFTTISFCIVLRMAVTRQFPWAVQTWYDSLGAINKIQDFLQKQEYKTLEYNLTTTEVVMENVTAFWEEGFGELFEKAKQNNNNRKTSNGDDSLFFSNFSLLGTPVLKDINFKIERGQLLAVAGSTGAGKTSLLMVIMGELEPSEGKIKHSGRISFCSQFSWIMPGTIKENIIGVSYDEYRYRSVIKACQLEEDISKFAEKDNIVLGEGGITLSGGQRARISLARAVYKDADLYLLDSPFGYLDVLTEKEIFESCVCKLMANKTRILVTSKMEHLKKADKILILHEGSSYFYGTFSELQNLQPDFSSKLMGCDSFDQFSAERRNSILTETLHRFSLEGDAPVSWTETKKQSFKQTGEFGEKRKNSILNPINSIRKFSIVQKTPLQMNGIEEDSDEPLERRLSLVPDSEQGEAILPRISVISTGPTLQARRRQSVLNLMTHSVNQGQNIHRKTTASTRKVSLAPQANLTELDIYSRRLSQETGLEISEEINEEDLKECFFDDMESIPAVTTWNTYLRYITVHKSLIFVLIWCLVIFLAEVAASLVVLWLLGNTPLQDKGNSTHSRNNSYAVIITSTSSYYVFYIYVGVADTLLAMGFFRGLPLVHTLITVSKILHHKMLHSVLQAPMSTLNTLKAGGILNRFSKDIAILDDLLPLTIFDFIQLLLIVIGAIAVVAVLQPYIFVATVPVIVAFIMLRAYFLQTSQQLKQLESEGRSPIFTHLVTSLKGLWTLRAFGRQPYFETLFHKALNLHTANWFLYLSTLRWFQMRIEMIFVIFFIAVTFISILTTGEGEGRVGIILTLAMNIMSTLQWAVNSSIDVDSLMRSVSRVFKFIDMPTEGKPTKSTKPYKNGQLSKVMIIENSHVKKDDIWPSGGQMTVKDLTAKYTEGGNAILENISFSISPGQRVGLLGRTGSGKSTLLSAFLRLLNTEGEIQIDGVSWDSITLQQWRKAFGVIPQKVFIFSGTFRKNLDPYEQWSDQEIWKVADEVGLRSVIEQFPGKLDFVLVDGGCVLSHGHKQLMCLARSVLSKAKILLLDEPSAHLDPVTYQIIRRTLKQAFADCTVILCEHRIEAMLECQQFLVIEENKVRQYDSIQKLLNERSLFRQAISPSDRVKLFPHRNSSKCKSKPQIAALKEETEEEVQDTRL

A word on the EC50: it is the concentration needed to bring the measured effect to its halfway point. In the case of `Cc1cccc(C)c1-c1cc2nc(n1)NS(=O)(=O)c1cccc(c1)C(=O)N(Cc1cnc3oc(C4CC4)cc3n1)[C@H](CCC(C)(C)F)CO2` [Compound I-107], the Emax was greater than 60% and the half-maximal effective concentration (EC50) was less than 1 µM.

On to `Cc1cccc(C)c1-c1cc2nc(n1)NS(=O)(=O)c1cccc(c1)C(=O)N(Cc1cnc3oc(C(C)C)c(C)c3n1)[C@@H](COC1CCC1)CO2` (stereo in doubt) [Compound I-93], for which the Emax is greater than 60% and the EC50 was less than 1 µM.

For `Cc1cccc(C)c1-c1cc2nc(n1)NS(=O)(=O)c1cccc(c1)C(=O)N(C(=O)c1cncc(N(C)C3CCC3)n1)[C@H](CC(C)(C)C)CO2` [II-32], the Emax is greater than 60% and the EC50 is less than 1 µM.

As for `Cc1cccc(C)c1-c1cc2nc(n1)NS(=O)(=O)c1cccc(c1)C(=O)N(Cc1cnc3oc(C(C)C)c(C)c3n1)[C@H](CC(C)(C)C)CO2` [Compound I-4], the Emax is greater than 60% and the 50% effective concentration (EC50) is less than 1 µM.

Regarding `Cc1cccc(C)c1-c1cc2nc(n1)NS(=O)(=O)c1cccc(c1)C(=O)N(Cc1cnc3oc(C(C)C)cc3n1)[C@H](CC(C)(C)F)CO2` [Compound I-35], the Emax was greater than 60% and the EC50 is less than 1 µM.

Take `Cc1cccc(C)c1-c1cc2nc(n1)NS(=O)(=O)c1cccc(c1)C(=O)N(Cc1cnc3oc(C(C)C)c(C)c3n1)[C@H](CC1(C)CC1)CO2` [Compound I-17]: the Emax was greater than 60% and the EC50 is less than 1 µM.

`Cc1cccc(C)c1-c1cc2nc(n1)NS(=O)(=O)c1cccc(c1)C(=O)N(Cc1cnc3oc(C(C)C)cc3n1)[C@H](CC1CCCO1)CO2` (single isomer, unassigned) [Compound I-18]: the Emax is greater than 60% and the EC50 was less than 1 µM.

On to `Cc1cccc(C)c1-c1cc2nc(n1)NS(=O)(=O)c1cccc(c1)C(=O)N(Cc1cnc3oc(C(C)C)c(C)c3n1)[C@H](CCC(C)C)CO2` [Compound I-19], for which the Emax is greater than 60% and the EC50 is less than 1 µM.

For `Cc1cccc(C)c1-c1cc2nc(n1)NS(=O)(=O)c1cccc(c1)C(=O)N(Cc1cnc3oc(C(C)C)cc3n1)[C@H](CCC(C)C)CO2` [Compound I-2], the Emax is greater than 60% and the EC50 was less than 1 µM.

As to `Cc1cccc(C)c1-c1cc2nc(n1)NS(=O)(=O)c1cccc(c1)C(=O)N(Cc1cnc3cc(C(C)C)n(C)c3n1)[C@H](C[C@H]1CCCCO1)CO2` [Compound I-3], the Emax was greater than 60% and the concentration for a half-maximal effect (EC50) is less than 1 µM.

On to `Cc1cccc(C)c1-c1cc2nc(n1)NS(=O)(=O)c1cccc(c1)C(=O)N(Cc1cnc3oc(C4CC4)cc3n1)[C@H](CC1CCCCC1)CO2` [Compound I-42], for which the Emax was greater than 60% and the EC50 was less than 1 µM.

Regarding `Cc1cccc(C)c1-c1cc2nc(n1)NS(=O)(=O)c1cccc(c1)C(=O)N(Cc1cnc3oc(C(C)C)c(C#N)c3n1)[C@H](CC13CC(C1)C3)CO2` [Compound I-85], the Emax is greater than 60% and the EC50 was less than 1 µM.

`Cc1cccc(C)c1-c1cc2nc(n1)NS(=O)(=O)c1cccc(c1)C(=O)N(Cc1cnc3cc(C(C)C)n(C)c3n1)[C@H](C[C@@H]1CCCO1)CO2` (stereo in doubt) [Compound I-16]: the Emax was greater than 60% and the EC50 was less than 1 µM.

Take `Cc1cccc(C)c1-c1cc2nc(n1)NS(=O)(=O)c1cccc(c1)C(=O)N(Cc1cnc3oc(C(C)C)cc3n1)C(COC1CCC1)CO2` (single isomer, unassigned) [Compound I-49, 11-(cyclobutoxymethyl)-6-(2,6-dimethylphenyl)-12-[(6-isopropylfuro[2,3-b]pyrazin-2-yl)methyl]-2,2-dioxo-9-oxa-2λ^6-thia-3,5,12,19-tetrazatricyclo[12.3.1.14,8]nonadeca-1(18),4(19),5,7,14,16-hexaen-13-one]: the Emax was greater than 60% and the EC50 is less than 1 µM.

Consider `Cc1cccc(C)c1-c1cc2nc(n1)NS(=O)(=O)c1cccc(c1)C(=O)N(Cc1nc3cc(C(C)C)oc3cc1F)[C@H](CC(C)(C)C)CO2` [Compound I-63], for which the Emax was greater than 60% and the EC50 was less than 1 µM.

Regarding `Cc1cccc(C)c1-c1cc2nc(n1)NS(=O)(=O)c1cccc(c1)C(=O)N(Cc1cn3cccc(N)c3n1)[C@H](CC(C)(C)C)CO2` [III-12], the Emax is greater than 60% and the concentration for a half-maximal effect (EC50) is less than 1 µM.

On to `Cc1cccc(C)c1-c1cc2nc(n1)NS(=O)(=O)c1cccc(c1)C(=O)N(Cc1cnc3oc(C4CC4)cc3n1)[C@H](CC(C)(C)C)CO2` [Compound I-20], for which the Emax is greater than 60% and the EC50 is less than 1 µM.

For the compound `Cc1cccc(C)c1-c1cc2nc(n1)NS(=O)(=O)c1cccc(c1)C(=O)N(Cc1nc3c(cc1F)cc(C(C)C)n3C)[C@@H](COC1CCC1)CO2` (stereo in doubt) [Compound I-84], the Emax was greater than 60% and the EC50 is less than 1 µM.

Turning to `Cc1cccc(C)c1-c1cc2nc(n1)NS(=O)(=O)c1cccc(c1)C(=O)N(Cc1cnc3nc(C(C)C)n(C)c3n1)[C@H](COC(C)C)CO2` [Compound I-90], the Emax is greater than 60% and the EC50 is less than 1 µM.

Take `Cc1cccc(C)c1-c1cc2nc(n1)NS(=O)(=O)c1cccc(c1)C(=O)N(Cc1cnc3oc(C(C)C)cc3n1)[C@H](CC1(C(F)(F)F)CC1)CO2` [Compound I-54]: the Emax is greater than 60% and the EC50 was less than 1 µM.

Regarding `Cc1cccc(C)c1-c1cc2nc(n1)NS(=O)(=O)c1cccc(c1)C(=O)N(Cc1cnc3oc(C(C)C)cc3n1)[C@H](CC1CCOCC1)CO2` [Compound I-30, (11R)-6-(2,6-dimethylphenyl)-12-[(6-isopropylfuro[2,3-b]pyrazin-2-yl)methyl]-2,2-dioxo-11-(tetrahydropyran-4-ylmethyl)-9-oxa-2λ^6-thia-3,5,12,19-tetrazatricyclo[12.3.1.14,8]nonadeca-1(18),4(19),5,7,14,16-hexaen-13-one], the Emax lay in the range of 30 to 60% and the EC50 is less than 1 µM.

For `Cc1cccc(C)c1-c1cc2nc(n1)NS(=O)(=O)c1cccc(c1)C(=O)N(Cc1cnc3oc(C(C)C)cc3n1)[C@H](C[C@H]1CCCCO1)CO2` [Compound I-7], the Emax is greater than 60% and the EC50 was less than 1 µM.

As to `Cc1cccc(C)c1-c1cc2nc(n1)NS(=O)(=O)c1cccc(c1)C(=O)N(Cc1cnc3oc(C4CC4)cc3n1)[C@H](C[C@H]1CCCCO1)CO2` (stereo in doubt) [Compound I-44], the Emax was greater than 60% and the half-maximal effective concentration (EC50) was less than 1 µM.

With `Cc1cccc(C)c1-c1cc2nc(n1)NS(=O)(=O)c1cccc(c1)C(=O)N(Cc1cnc3nc(C(C)C)n(C)c3n1)[C@H](CC1(C)CC1)CO2` [Compound I-75], the Emax was greater than 60% and the EC50 was less than 1 µM.

For `Cc1cccc(C)c1-c1cc2nc(n1)NS(=O)(=O)c1cccc(c1)C(=O)N(Cc1cnc3oc(C(C)C)c(C)c3n1)[C@H](COC(C)C)CO2` [Compound I-10], the Emax was greater than 60% and the EC50 is less than 1 µM.

Turning to `Cc1cccc(C)c1-c1cc2nc(n1)NS(=O)(=O)c1cccc(c1)C(=O)N(Cc1nc3cc(C(C)C)oc3cc1F)[C@H](CC1(C)CC1)CO2` [Compound I-78], the Emax was greater than 60% and the EC50 was less than 1 µM.

With `Cc1cccc(C)c1-c1cc2nc(n1)NS(=O)(=O)c1cccc(c1)C(=O)N(Cc1cnc3c(n1)CC(C(C)C)O3)[C@H](CC1(C)CC1)CO2` (single isomer, unassigned) [III-13], the Emax is greater than 60% and the EC50 is less than 1 µM.
